Key:
P. falciparum strain 3D7 = conditions: thiamine 2.97 μM vs absence of thiamine; ref [15]; cited from earlier work
[1] = tested on: P. falciparum 3D7 expressing PfTPK-GFP; parameters: method as in PMID 23804074; conditions: thiamine-free culture medium; ref [15]; cited from earlier work
E. coli OGDHc E1 = molecular target: T1, E. coli OGDHc E1 (Escherichia coli, UniProt P0AFG3); assay: E. coli OGDHc E1 inhibitory activity assay (DCPIP reduction); assay type: biochemical; conditions: E. coli OGDHc E1; read-out: KM(ThDP) OGDHc E1
T1 sequence (P0AFG3 1-933): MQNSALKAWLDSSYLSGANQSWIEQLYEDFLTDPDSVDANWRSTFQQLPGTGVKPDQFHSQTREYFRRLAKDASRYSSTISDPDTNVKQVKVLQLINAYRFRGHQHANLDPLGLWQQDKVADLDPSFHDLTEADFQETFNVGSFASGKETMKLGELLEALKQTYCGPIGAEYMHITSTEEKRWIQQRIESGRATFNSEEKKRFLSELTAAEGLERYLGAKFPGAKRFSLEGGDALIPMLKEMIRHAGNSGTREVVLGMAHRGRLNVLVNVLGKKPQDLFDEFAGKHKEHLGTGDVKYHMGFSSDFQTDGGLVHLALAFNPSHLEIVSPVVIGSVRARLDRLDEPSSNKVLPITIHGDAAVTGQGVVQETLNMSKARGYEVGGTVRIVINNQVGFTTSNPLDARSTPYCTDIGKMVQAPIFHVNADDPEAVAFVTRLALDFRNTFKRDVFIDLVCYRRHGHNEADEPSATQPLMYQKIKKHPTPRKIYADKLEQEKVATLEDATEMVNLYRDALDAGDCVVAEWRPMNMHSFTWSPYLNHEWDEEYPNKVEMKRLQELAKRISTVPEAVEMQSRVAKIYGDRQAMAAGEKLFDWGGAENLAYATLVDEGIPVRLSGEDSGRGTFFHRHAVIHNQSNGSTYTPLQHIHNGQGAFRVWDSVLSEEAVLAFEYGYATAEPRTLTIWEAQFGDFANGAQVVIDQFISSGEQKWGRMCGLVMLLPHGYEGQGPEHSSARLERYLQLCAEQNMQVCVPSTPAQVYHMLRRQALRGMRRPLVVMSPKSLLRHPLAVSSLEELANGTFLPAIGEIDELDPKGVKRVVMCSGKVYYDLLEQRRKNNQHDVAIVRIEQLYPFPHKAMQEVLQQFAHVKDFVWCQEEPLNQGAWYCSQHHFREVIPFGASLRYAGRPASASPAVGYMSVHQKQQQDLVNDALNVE
Description: E. coli OGDHc E1 inhibitory activity assay. E. coli OGDHc E1 was from our previous work 5 and had been donated by R. Frank. Its activity was determined by monitoring DCPIP reduction at 600 nm using a microplate reader (CLARIOstar) and conducted as described 1,2 with some modifications. The percentage inhibition of compounds against E. coli OGDHc E1 was assayed at a final concentration of 250 µM. The reaction buffer (50 mM KH 2PO4 and 2 mM MgCl 2, pH 7) contained 50 µM ThDP (or 125 µM in the competition assay), 0.5 mM DCPIP, and 6.7 mg/ml E. coli OGDHc E1. The reaction mixture was preincubated at 37 °C for 60 min, then reaction was initiated by adding α-ketoglutarate to a final concentration of 10 mM. To determine the IC 50, ThDP concentration was lowered to 30 µM, and inhibitor concentration was varied (2-1000 µM). Specific activity was calculated using the molar […]
for the PDHc E1 assay. […] 5 […]

porcine PDHc E1 = molecular target: T2, porcine PDHc E1 (Sus scrofa, UniProt P29804); assay: PDHc E1 inhibitory activity assay (DCPIP reduction); assay type: biochemical; conditions: porcine PDHc E1; read-out: KM(ThDP) PDHc E1
T2 sequence (P29804 31-390): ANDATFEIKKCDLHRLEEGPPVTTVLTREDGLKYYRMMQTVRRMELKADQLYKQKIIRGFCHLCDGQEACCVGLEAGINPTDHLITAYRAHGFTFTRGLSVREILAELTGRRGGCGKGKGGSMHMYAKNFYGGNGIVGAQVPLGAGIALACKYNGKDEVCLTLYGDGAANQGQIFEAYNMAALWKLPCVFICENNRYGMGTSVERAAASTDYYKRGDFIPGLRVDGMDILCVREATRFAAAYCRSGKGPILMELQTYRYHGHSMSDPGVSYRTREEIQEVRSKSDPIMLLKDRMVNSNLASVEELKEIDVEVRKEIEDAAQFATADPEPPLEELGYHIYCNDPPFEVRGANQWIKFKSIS
Description: Enzyme assays – Methods and Results S1
Ligand efficiencies – Calculations S3 […]
Enzyme assays (Methods and Results)
PDHc E1 inhibitory activity assay. Porcine PDHc E1 was purchased from Sigma. Its activity was […]
determined by monitoring 2,6-dichlorophenolindophenol (DCPIP) reduction at 600 nm using a […]
microplate reader (CLARIOstar) and conducted as described 1,2 with some modifications. The percentage inhibition of compounds against porcine PDHc E1 was assayed at a final concentration of 250 µM. The reaction buffer (50 mM KH 2PO4 and 1 mM MgCl 2, pH 7) contained 50 µM ThDP (or 125 µM in the competition assay), 0.25 mM DCPIP, and 2 mg/ml porcine PDHc E1. The reaction mixture […]
was preincubated at 37 °C for 30 min, then the reaction was initiated by adding pyruvate to a final […]
concentration of 50 mM. To determine the half-maximal inhibitory concentration (IC 50 ), ThDP […]
concentration was lowered to 10 µM, and inhibitor concentration was varied (0.4-200 µM). Specific […]
activity was calculated using the molar extinction coefficient of DCPIP, 21 mM -1 cm-1.3 The enzyme […]
IC50 values were calculated from non-linear regression curve fitting using GraphPad Prism.

[2] = molecular target: PDC from Zymomonas mobilis; parameters: method as in PMID 19082157, PMID 20099870; conditions: ref [8],[24]; cited from earlier work
[3] = substrate: Cc1ncc(C[n+]2csc(CCO[P@](=O)(O)OP(=O)(O)O)c2C)c(N)n1; assay: Z. mobilis PDC inhibitory activity assay (NADH consumption); assay type: biochemical, Zymomonas mobilis; conditions: pH 7.0; 37.0 °C
[4] = substrate: Cc1ncc(C[n+]2csc(CCO[P@](=O)(O)OP(=O)(O)O)c2C)c(N)n1; assay: A. viridans PO inhibitory activity assay (quinoneimine dye); assay type: biochemical, Aerococcus viridans; conditions: other: A. viridans PO; 37.0 °C
Description: A. viridans PO inhibitory activity assay. A. viridans PO and horseradish peroxidase were purchased from Sigma. A. viridans PO activity was determined by monitoring appearance of quinoneimine dye at 550 nm using a microplate reader (CLARIOstar) and conducted as described 1 with some modifications.
The percentage inhibition of compounds against A. viridans PO was assayed at a final concentration of 250 µM. The reaction buffer (50 mM KH 2PO4 and 10 mM MgCl 2, pH 5.9) contained 50 µM ThDP (or 125 µM in the competition assay), 10 µM flavin adenine dinucleotide (FAD), 0.15% 4-Aminoantipyrine, 0.3% N-Ethyl-N-(2-hydroxy-3-sulfopropyl)-m-toluidine (EHSPT), 50 µg/mL horseradish peroxidase and 0.35 U/mL A. viridans PO. The reaction mixture was preincubated at 37 °C for 30 min, then reaction was initiated by adding pyruvate to a final concentration of 50 mM. To determine the IC 50, inhibitor concentration was varied (2-1000 µM) with ThDP concentration at 50 µM. 1 unit of PO activity is defined as 1 μmol of hydrogen peroxide produced per minute. The enzyme IC 50 values were calculated as described for the PDHc E1 assay. […]

Question: Which “fold increase of IC50 with added thiamine” value (P. falciparum strain 3D7) does the source give for Cc1ncc(C[n+]2csc(CCO)c2C)c(O)n1 [Compound 7a, oxythiamine] here?
Answer: The value was 470 fold.

Question: And the “fold more sensitive, parasite over-expressing TPK vs parasite bearing an empty plasmid” value [1]?
Answer: Its value is 70 fold.

Question: With Cc1ncc(C[n+]2csc(CCO[P@](=O)(O)OP(=O)(O)O)c2C)c(N)n1 [ThDP, thiamine diphosphate] as the molecule, how does the Km (E. coli OGDHc E1) read?
Answer: Its Km is 3 µM.

Question: And the Km (porcine PDHc E1)?
Answer: Its Km is 0.05 µM.

Question: For Cc1ncc(Cn2cc(CCOP(=O)(O)OP(=O)(O)O)nn2)c(N)n1 [Triazole-ThDP 5], which Ki [2] is on record?
Answer: The Ki was 0.03 nM.

B1: Z. mobilis PDC (Zymomonas mobilis subsp. mobilis ZM4 = ATCC 31821) (protein)
chain: MSYTVGTYLAERLVQIGLKHHFAVAGDYNLVLLDNLLLNKNMEQVYCCNELNCGFSAEGYARAKGAAAAVVTYSVGALSAFDAIGGAYAENLPVILISGAPNNNDHAAGHVLHHALGKTDYHYQLEMAKNITAAAEAIYTPEEAPAKIDHVIKTALREKKPVYLEIACNIASMPCAAPGPASALFNDEASDEASLNAAVEETLKFIANRDKVAVLVGSKLRAAGAEEAAVKFADALGGAVATMAAAKSFFPEENPHYIGTSWGEVSYPGVEKTMKEADAVIALAPVFNDYSTTGWTDIPDPKKLVLAEPRSVVVNGIRFPSVHLKDYLTRLAQKVSKKTGALDFFKSLNAGELKKAAPADPSAPLVNAEIARQVEALLTPNTTVIAETGDSWFNAQRMKLPNGARVEYEMQWGHIGWSVPAAFGYAVGAPERRNILMVGDGSFQLTAQEVAQMVRLKLPVIIFLINNYGYTIEVMIHDGPYNNIKNWDYAGLMEVFNGNGGYDSGAGKGLKAKTGGELAEAIKVALANTDGPTLIECFIGREDCTEELVKWGKRVAAANSRKPVNKLL
notes: made in house
Question: For B1, which Km [3] is on record?
Answer: The Km was 0.35 µM.

B2: A. viridans PO (Aerococcus viridans) (protein)
chain: MSDNKINIGLAVMKILESWGADTIYGIPSGTLSSLMDAMGEEENNVKFLQVKHEEVGAMAAVMQSKFGGNLGVTVGSGGPGASHLINGLYDAAMDNIPVVAILGSRPQRELNMDAFQELNQNPMYDHIAVYNRRVAYAEQLPKLVDEAARMAIAKRGVAVLEVPGDFAKVEIDNDQWYSSANSLRKYEPIAPAAQDIDAAVELLNNSKRPVIYAGIGTMGHGPAVQELARKIKAPVITTGKNFETFEWDFEALTGSTYRVGWKPANETILEADTVLFAGSNFPFSEVEGTFRNVDNFIQIDIDPAMLGKRHHADVAILGDAGLAIDEILNKVDAVEESAWWTANLKNIANWREYINMLETKEEGDLQFYQVYNAINNHADEDAIYSIDVGNSTQTSIRHLHMTPKNMWRTSPLFATMGIAIPGGLGAKNTYPDRQVWNIIGDGAFSMTYPDVVTNVRYNMPVINVVFSNTEYAFIKNKYEDTNKNLFGVDFTDVDYAKIAEAQGAKGFTVSRIEDMDRVMAEAVAANKAGHTVVIDCKITQDRPIPVETLKLDSKLYSEDEIKAYKERYEAANLVPFREYLEAEGLESKYIK
Question: Which Km [4] does the source give for B2 here?
Answer: Its Km is 5 µM.

— PMC10184313, “Inhibition of Thiamine Diphosphate-Dependent Enzymes by Triazole-Based Thiamine Analogues” (ACS Medicinal Chemistry Letters, 2023)
